Assays:
Melanocortin receptor 4 = Melanocortin receptor 4 (Homo sapiens, UniProt P32245); assay type: cell membranes, Membrane; details: hek293; further: in other assays of this panel Not Active means under 50% inhibition at 10 µM
[1] = DRUGMATRIX: Potassium Channel [KATP] radioligand binding (ligand: [3H] Glyburide); assay type: cell membranes, Membrane; details: hit-t15; Not Active = under 50% inhibition at 10 µM
Vasopressin V1a receptor = Vasopressin V1a receptor (Homo sapiens, UniProt P37288); assay type: cell membranes, Membrane; details: hek293; further: in other assays of this panel Not Active means under 50% inhibition at 10 µM
Chain of Vasopressin V1a receptor (P37288 whole entry): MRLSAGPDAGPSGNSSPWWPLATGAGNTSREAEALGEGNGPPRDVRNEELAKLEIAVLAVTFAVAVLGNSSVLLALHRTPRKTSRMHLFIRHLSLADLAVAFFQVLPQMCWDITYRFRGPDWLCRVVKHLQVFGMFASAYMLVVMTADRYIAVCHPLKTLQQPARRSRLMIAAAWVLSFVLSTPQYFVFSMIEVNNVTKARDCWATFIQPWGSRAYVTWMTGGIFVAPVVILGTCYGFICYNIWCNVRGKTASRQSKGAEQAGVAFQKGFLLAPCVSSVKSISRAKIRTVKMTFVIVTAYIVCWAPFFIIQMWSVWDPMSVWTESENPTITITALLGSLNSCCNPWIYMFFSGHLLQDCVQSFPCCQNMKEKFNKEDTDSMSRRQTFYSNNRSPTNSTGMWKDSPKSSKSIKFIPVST

[2] = biological target: T1, Cholecystokinin receptor type A (Homo sapiens, UniProt P32238); assay type: cell membranes, Membrane; details: 1321-n1; further: in other assays of this panel Not Active means under 50% inhibition at 10 µM
T1 sequence (P32238 whole entry): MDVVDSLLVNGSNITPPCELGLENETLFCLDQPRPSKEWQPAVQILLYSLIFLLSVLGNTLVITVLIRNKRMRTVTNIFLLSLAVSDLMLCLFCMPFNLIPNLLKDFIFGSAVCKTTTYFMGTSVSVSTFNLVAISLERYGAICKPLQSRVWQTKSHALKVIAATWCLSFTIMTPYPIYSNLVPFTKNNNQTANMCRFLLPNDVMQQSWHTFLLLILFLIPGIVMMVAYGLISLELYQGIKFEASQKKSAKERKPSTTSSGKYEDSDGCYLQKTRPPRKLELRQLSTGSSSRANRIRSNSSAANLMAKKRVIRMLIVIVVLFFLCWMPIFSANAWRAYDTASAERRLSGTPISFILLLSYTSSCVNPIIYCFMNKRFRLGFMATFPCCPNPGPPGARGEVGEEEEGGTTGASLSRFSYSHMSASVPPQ

[3] = biological target: Mitogen-activated protein kinase 3 (Homo sapiens, UniProt P27361); assay: DRUGMATRIX: Protein Serine/Threonine Kinase, ERK1 enzyme inhibition (substrate: Myelin Basic Protein); set-up: species or system Escherichia coli; details: Not Active = under 50% inhibition at 10 µM
Chain of Mitogen-activated protein kinase 3 (P27361 whole entry): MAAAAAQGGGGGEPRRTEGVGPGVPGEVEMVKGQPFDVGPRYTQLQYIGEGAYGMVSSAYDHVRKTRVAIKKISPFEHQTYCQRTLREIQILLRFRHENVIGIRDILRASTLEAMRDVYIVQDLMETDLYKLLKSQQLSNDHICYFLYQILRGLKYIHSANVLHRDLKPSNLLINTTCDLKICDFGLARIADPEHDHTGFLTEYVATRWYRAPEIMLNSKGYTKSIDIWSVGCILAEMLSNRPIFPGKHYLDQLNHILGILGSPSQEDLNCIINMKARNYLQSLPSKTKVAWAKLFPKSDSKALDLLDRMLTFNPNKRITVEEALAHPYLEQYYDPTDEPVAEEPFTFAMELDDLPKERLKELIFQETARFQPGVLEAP

[4] = biological target: T2, Cysteinyl leukotriene receptor 1 (Homo sapiens, UniProt Q9Y271); assay type: cell membranes, CHO-K1, Membrane; details: cho-k1; further: in other assays of this panel Not Active means under 50% inhibition at 10 µM
T2 sequence (Q9Y271 whole entry): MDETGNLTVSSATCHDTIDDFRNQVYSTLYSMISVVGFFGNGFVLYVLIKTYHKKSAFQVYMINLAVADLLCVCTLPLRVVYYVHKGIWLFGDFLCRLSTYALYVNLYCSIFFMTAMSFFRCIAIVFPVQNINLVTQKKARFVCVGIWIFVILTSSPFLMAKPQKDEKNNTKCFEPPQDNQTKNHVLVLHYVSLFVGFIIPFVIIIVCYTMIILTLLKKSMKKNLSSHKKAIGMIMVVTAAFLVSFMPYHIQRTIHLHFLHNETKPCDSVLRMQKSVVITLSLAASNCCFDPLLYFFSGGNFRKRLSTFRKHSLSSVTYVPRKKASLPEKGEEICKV

[5] = biological target: Kappa-type opioid receptor (Homo sapiens, UniProt P41145); assay: DRUGMATRIX: Opiate kappa (OP2, KOP) radioligand binding (ligand: [3H] Diprenorphine); assay type: cell membranes, HEK293, Membrane; details: hek293; Not Active = under 50% inhibition at 10 µM
Chain of Kappa-type opioid receptor (P41145 whole entry): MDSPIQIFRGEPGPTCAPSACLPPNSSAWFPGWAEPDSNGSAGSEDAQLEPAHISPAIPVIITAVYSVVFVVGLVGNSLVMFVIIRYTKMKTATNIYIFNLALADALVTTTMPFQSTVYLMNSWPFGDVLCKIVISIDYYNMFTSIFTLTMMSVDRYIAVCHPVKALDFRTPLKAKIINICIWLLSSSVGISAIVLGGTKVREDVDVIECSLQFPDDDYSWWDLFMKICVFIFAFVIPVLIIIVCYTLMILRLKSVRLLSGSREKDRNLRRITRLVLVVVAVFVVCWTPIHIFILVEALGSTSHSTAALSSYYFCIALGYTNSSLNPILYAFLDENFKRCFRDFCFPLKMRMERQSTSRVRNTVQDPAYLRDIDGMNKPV

[6] = DRUGMATRIX: Sigma2 radioligand binding (ligand: [3H] Ifenprodil); assay type: cell membranes, Rattus norvegicus, Wistar, Brain, Membrane; details: Not Active = under 50% inhibition at 10 µM
[7] = biological target: T3, 5-hydroxytryptamine receptor 2C (Homo sapiens, UniProt P28335); assay: DRUGMATRIX: Serotonin (5-Hydroxytryptamine) 5-HT2C radioligand binding (ligand: [3H] Mesulergine); assay type: cell membranes, CHO-K1, Membrane; details: cho-k1; Not Active = under 50% inhibition at 10 µM
T3 sequence (P28335 whole entry): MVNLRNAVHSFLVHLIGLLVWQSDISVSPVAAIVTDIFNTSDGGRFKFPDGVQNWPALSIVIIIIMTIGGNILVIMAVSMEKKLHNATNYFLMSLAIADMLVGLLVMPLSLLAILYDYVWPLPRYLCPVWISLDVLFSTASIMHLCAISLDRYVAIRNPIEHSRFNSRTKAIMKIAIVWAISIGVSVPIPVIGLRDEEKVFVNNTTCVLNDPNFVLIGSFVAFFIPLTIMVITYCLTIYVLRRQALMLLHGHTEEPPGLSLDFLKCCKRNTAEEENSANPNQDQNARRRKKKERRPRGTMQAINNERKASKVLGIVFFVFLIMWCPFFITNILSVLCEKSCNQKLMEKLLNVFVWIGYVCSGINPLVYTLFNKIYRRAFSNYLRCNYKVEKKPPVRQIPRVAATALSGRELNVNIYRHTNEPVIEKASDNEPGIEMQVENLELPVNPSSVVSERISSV

Cytochrome P450 3A4 = Cytochrome P450 3A4 (Homo sapiens, UniProt P08684); details: bti-tn-5b1-4; further: in other assays of this panel Not Active means under 50% inhibition at 10 µM
Chain of Cytochrome P450 3A4 (P08684 whole entry): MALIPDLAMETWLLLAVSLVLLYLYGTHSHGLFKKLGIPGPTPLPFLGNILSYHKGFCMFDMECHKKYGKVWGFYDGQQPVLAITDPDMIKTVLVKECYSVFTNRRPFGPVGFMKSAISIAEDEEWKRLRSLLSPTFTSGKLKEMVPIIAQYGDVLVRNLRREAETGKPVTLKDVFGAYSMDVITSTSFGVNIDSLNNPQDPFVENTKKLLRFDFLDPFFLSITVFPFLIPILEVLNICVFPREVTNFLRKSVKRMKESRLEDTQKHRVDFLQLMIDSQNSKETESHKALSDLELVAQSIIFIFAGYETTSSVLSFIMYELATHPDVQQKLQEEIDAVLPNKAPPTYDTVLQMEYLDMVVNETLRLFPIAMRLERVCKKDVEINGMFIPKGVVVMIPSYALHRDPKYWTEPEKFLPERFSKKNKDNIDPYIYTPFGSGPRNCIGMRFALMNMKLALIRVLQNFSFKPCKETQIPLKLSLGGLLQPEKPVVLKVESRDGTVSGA

[8] = DRUGMATRIX: Calcium Channel Type L, Phenylalkylamine radioligand binding (ligand: [3H] (-)-Desmethoxyverapamil (D-888)); assay type: cell membranes, Rattus norvegicus, Wistar, Brain, Membrane; details: Not Active = under 50% inhibition at 10 µM
Estrogen receptor = biological target: T4, Estrogen receptor (Homo sapiens, UniProt P03372); details: sf9; further: in other assays of this panel Not Active means under 50% inhibition at 10 µM
T4 sequence (P03372 whole entry): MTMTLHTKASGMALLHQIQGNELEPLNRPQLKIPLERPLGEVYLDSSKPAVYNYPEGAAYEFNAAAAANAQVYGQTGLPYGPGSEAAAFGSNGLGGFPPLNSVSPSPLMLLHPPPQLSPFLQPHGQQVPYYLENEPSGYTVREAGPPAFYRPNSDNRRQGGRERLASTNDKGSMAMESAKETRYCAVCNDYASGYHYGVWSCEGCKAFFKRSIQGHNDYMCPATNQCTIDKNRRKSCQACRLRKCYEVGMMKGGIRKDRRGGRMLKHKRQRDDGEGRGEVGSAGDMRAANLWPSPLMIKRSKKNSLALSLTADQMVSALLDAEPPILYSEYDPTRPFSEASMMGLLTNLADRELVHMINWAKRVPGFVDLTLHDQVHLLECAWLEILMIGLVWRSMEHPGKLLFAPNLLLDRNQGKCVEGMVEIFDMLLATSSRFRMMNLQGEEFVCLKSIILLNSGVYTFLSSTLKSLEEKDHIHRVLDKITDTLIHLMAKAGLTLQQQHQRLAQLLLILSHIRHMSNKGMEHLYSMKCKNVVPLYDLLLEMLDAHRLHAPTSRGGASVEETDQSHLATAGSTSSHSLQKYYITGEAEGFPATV

[9] = biological target: Matrix metalloproteinase-9 (Homo sapiens, UniProt P14780); assay type: cell-based
Chain of Matrix metalloproteinase-9 (P14780 whole entry): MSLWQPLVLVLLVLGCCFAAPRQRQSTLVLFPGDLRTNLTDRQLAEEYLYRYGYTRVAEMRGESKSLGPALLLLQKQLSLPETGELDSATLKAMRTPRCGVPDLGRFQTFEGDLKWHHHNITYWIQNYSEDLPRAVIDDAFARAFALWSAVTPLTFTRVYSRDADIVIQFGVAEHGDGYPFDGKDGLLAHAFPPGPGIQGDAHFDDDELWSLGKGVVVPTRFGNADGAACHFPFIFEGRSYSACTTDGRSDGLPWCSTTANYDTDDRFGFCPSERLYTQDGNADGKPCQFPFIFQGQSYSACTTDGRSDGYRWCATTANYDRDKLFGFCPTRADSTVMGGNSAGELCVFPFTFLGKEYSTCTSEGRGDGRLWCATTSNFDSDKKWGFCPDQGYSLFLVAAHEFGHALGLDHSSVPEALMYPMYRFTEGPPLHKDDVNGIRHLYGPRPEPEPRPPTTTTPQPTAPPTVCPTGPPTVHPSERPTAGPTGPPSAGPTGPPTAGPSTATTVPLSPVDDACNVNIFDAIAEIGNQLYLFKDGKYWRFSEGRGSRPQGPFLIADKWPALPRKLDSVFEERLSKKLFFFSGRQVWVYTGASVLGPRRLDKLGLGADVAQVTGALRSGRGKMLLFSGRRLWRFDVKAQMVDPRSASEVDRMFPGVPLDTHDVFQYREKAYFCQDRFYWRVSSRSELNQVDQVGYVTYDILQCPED

[10] = DRUGMATRIX: Interleukin IL-1 radioligand binding (ligand: [125I] interleukin 1beta); assay type: cell membranes, Membrane; details: nih3t3; Not Active = under 50% inhibition at 10 µM

Chain of Melanocortin receptor 4 (P32245 whole entry): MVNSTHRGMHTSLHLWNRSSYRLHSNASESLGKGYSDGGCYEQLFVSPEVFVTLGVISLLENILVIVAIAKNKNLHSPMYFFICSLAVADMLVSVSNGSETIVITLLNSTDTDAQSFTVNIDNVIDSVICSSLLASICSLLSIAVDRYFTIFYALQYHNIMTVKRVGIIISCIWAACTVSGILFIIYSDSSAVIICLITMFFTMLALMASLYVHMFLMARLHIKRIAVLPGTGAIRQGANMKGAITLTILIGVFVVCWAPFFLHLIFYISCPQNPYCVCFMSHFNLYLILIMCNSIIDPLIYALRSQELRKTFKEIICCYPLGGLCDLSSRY

CC(=O)O[C@]1(C(C)=O)CC[C@H]2[C@@H]3C=C(Cl)C4=CC(=O)CC[C@]4(C)[C@H]3CC[C@@]21C [CHLORMADINONE ACETATE]
Not Active: IC50 (Melanocortin receptor 4) | IC50 [1] | Ki [1] | IC50 (Vasopressin V1a receptor) | IC50 [2] | IC50 [3] | IC50 [4] | IC50 [5] | IC50 [6] | Ki [6] | IC50 [7] | IC50 (Cytochrome P450 3A4) | Ki (Cytochrome P450 3A4) | IC50 [8] | Ki [8] | IC50 (Estrogen receptor) | IC50 [9] | IC50 [10] | Ki [10]

O=C1CCc2cc(OCCCCc3nnnn3C3CCCCC3)ccc2N1 [CILOSTAZOL]
Not Active: IC50 (Melanocortin receptor 4) | IC50 [1] | Ki [1] | IC50 (Vasopressin V1a receptor) | IC50 [2] | IC50 [3] | IC50 [4] | IC50 [5] | IC50 [6] | Ki [6] | IC50 [7] | IC50 (Cytochrome P450 3A4) | Ki (Cytochrome P450 3A4) | IC50 [8] | Ki [8] | IC50 (Estrogen receptor) | IC50 [9] | IC50 [10] | Ki [10]

C[C@]12CCC(=O)C=C1CC[C@@H]1[C@@H]2C(=O)C[C@@]2(C)[C@H]1CC[C@]2(O)C(=O)CO [CORTISONE]
Not Active: IC50 (Melanocortin receptor 4) | IC50 [1] | Ki [1] | IC50 (Vasopressin V1a receptor) | IC50 [2] | IC50 [3] | IC50 [4] | IC50 [5] | IC50 [6] | Ki [6] | IC50 [7] | IC50 (Cytochrome P450 3A4) | Ki (Cytochrome P450 3A4) | IC50 [8] | Ki [8] | IC50 (Estrogen receptor) | IC50 [9] | IC50 [10] | Ki [10]

CC1=Nc2ccc(Cl)cc2S(=O)(=O)N1 [DIAZOXIDE]
Not Active: IC50 (Melanocortin receptor 4) | IC50 [1] | Ki [1] | IC50 (Vasopressin V1a receptor) | IC50 [2] | IC50 [3] | IC50 [4] | IC50 [5] | IC50 [6] | Ki [6] | IC50 [7] | IC50 (Cytochrome P450 3A4) | Ki (Cytochrome P450 3A4) | IC50 [8] | Ki [8] | IC50 (Estrogen receptor) | IC50 [9] | IC50 [10] | Ki [10]

CCc1cccc2c3c([nH]c12)C(CC)(CC(=O)O)OCC3 (configuration not stated) [ETODOLAC]
Not Active: IC50 (Melanocortin receptor 4) | IC50 [1] | Ki [1] | IC50 (Vasopressin V1a receptor) | IC50 [2] | IC50 [3] | IC50 [4] | IC50 [5] | IC50 [6] | Ki [6] | IC50 [7] | IC50 (Cytochrome P450 3A4) | Ki (Cytochrome P450 3A4) | IC50 [8] | Ki [8] | IC50 (Estrogen receptor) | IC50 [9] | IC50 [10] | Ki [10]

Cc1c(-c2ccccc2)oc2c(C(=O)OCCN3CCCCC3)cccc2c1=O [FLAVOXATE]
Not Active: IC50 (Melanocortin receptor 4) | IC50 [1] | Ki [1] | IC50 (Vasopressin V1a receptor) | IC50 [2] | IC50 [3] | IC50 [4] | IC50 [5] | IC50 [6] | Ki [6] | IC50 [7] | IC50 (Cytochrome P450 3A4) | Ki (Cytochrome P450 3A4) | IC50 [8] | Ki [8] | IC50 (Estrogen receptor) | IC50 [9] | IC50 [10] | Ki [10]

Nc1nc(=O)[nH]cc1F [FLUCYTOSINE]
Not Active: IC50 (Melanocortin receptor 4) | IC50 [1] | Ki [1] | IC50 (Vasopressin V1a receptor) | IC50 [2] | IC50 [3] | IC50 [4] | IC50 [5] | IC50 [6] | Ki [6] | IC50 [7] | IC50 (Cytochrome P450 3A4) | Ki (Cytochrome P450 3A4) | IC50 [8] | Ki [8] | IC50 (Estrogen receptor) | IC50 [9] | IC50 [10] | Ki [10]

O=C1OC2(c3ccc(O)cc3Oc3cc(O)ccc32)c2ccccc21 [FLUORESCEIN]
Not Active: IC50 (Melanocortin receptor 4) | IC50 [1] | Ki [1] | IC50 (Vasopressin V1a receptor) | IC50 [2] | IC50 [3] | IC50 [4] | IC50 [5] | IC50 [6] | Ki [6] | IC50 [7] | IC50 (Cytochrome P450 3A4) | Ki (Cytochrome P450 3A4) | IC50 [8] | Ki [8] | IC50 (Estrogen receptor) | IC50 [9] | IC50 [10] | Ki [10]
